Source: a melting point compilation (Tetko et al.; mined from patent text by program, amines drawn as free bases though some values may be those of a salt)

SMILES	melting point [°C]
COc1ccc(C2CCN(c3c(C)c(C)c4c(c3C)C(Nc3ccccc3)C(C)(C)O4)CC2)cc1OC (stereo not given)	138 to 140
CNc1nc(Nc2ccc(Cl)c(CNS(C)(=O)=O)c2)ncc1[N+](=O)[O-]	250
CCOc1ccc2c(c1)n(C1CCCCC1)c(=O)n2Cc1ccc(N)cc1OC	191
COCc1cnc2c(NC(=O)c3ccccc3C(F)(F)F)cccc2c1N1CCN(C)C1=O	156
CN1CCN(c2cccc3c2C[C@H](NC(=O)c2ccc(OC(F)(F)F)cc2)CO3)CC1	192 to 193
Nc1c(C(=O)O)sc2cc(F)ccc12	160 to 163
Cc1ccc(NC(=O)c2ccc(CN3CC[N+](C)([O-])CC3)cc2)cc1Nc1nccc(-c2cccnc2)n1	154 to 158
CCOC(=O)c1nccc(NC=O)n1	205 to 206
CCC1Cc2ccc(C)cc2C1=O (stereo not given)	50 to 52
CC(C)c1cccc(F)c1NC(=S)NN	122 to 124
CCCc1c(C(=O)C(C)C)c2ccc(C(=O)O)cc2n1Cc1ccccc1Br	193 to 194
CN(C)c1nc(Cl)nc(NCC(F)(F)F)n1	181 to 184
O=C1NCCN1c1cccc([N+](=O)[O-])c1	158 to 160
CCCc1c(-c2cc(=O)c3c(O)cc(O)cc3o2)ccc(OC)c1O	200
Cc1nc(N)nc(N)c1-c1cc(C#N)ccc1Cl	239 to 241
CCC1(CC)OC(=O)Nc2ccc(/C(=C/C#N)C(C)C)cc21	138 to 140
Cn1c(NCCCOc2cccc(CN3CCCCC3)c2)nc2ccccc21	153 to 154
CS(=O)(=O)c1ccc(N2C=CC(N3CCCC3)C(=O)N2c2ccc(F)cc2)cc1 (stereo not given)	192 to 195
O=C(c1ccccc1)c1cccc2c1NCC2	124 to 125
CC(C)(S)C(O)(Cn1cncn1)c1ccc(F)cc1F (single isomer, unassigned; (-))	105
O=S(=O)(Cc1ccccc1)c1nc2ccc(O)cc2s1	188 to 189
Cc1ccc(S(=O)(=O)N(Cc2cc(C(C)(C)C)c(O)c(C(C)(C)C)c2)c2ccc(Cl)nc2)cc1	152 to 153
O=C(c1ccc(Cn2cnc3cnccc32)cc1)N1CCOCC1	119 to 121
CCOC(=O)C1=C(C)Nc2nc(N3CCOCC3)nc(N3CCOCC3)c2C1c1ccsc1 (stereo not given)	208
Cc1ccc(C(=O)/C(=C\c2ccccc2)C(=O)OC(C)(C)C)c(O)c1	92 to 95

SMILES	melting point [°C]
Cc1sc(N)c(C(=O)c2ccc(Br)s2)c1C	128 to 130
O=C1c2ccccc2C(=O)c2sc(-c3ccc(Cl)o3)nc21	258
O=C1CCCN1S(=O)(=O)c1ccc2ccccc2c1	118 to 120
Cc1ccc(-c2cc(C(=O)O)nn2Cc2ccc(Cl)c(Cl)c2)cc1	172
CCCc1ccc2c(c1)N(c1ncnc3cc(OC)c(OC)cc13)CC2	140 to 141
CNC(=O)c1cc(=O)c(-c2ccc(OC)c(OC)c2)co1	213 to 215
Cc1nnc(N(Cc2ccccc2)C(=O)Cc2ccccc2)s1	128
c1cc2c(c3c1CCN3)CCS2	170 to 172
CC(C)(C)c1cc(I)c(O)c(C=NO)c1	154 to 156
CNC(=O)c1cc(F)c(Cl)cc1F	128
O=C(c1ccc(Br)cc1Cl)N1Cc2cccn2Cc2ccccc21	77 to 80
COCCOc1ccc(/C=C/C(=O)O)c(Oc2ncc(Br)cc2C)c1	157 to 158
NS(=O)(=O)c1cc2c(cc1Cl)NC(C1CCCCC1)NS2(=O)=O (stereo not given)	274 to 276
CC(Oc1ccc(Oc2ccc3cc(Cl)ccc3n2)cc1)C(=O)Nc1ccc(C(F)(F)F)cc1 (stereo not given)	142 to 146
COc1cc(OC)c2c(=O)[nH]c(-c3cc(C)c(OCCO)c(C)c3)cc2n1	225
O=C1c2c(F)cc(F)c(F)c2C(=O)N1c1ccccc1	183 to 185
CNC(=O)NC1CC(C)(C)Cc2cc(C)cc(C)c21 (stereo not given)	196 to 197
CC(C)(C)OC(=O)N(Cc1csc2ccccc12)S(N)(=O)=O	103
COc1cc2c(cc1Nc1ncc(Cl)c(Nc3ccccc3OC)n1)CCOC(=O)N2C	192 to 194
CCOC(=O)c1cn2c(C)c(C)nc2c(NCc2c(C)cccc2CC)n1	144
CC(=O)Nc1nc2ccc(Cl)nc2c(=O)[nH]1	317 to 319
CSC(=CC(=O)c1cccc(C(F)(F)F)c1)SC	89.5
CN(C)c1nc2sc3c(NCCN4CCOCC4)ncnc3c2c2c1CCC(C)(C)C2	173 to 175
CC(C)(C)c1ccc(-c2ccc(C(C)(C)C)c(O)c2)cc1	86 to 87
O=C1CCC(N2C(=O)c3cccc(OCc4ccc(CN5CCOCC5)cc4)c3C2=O)C(=O)N1 (stereo not given)	205 to 207

SMILES	melting point [°C]
O=C(O)COc1cc2c(c(Cl)c1Cl)C(=O)C(C1CCCC1)C2 (stereo not given)	184 to 186
OCC(Cl)=C(Cl)CC(O)(Cn1cncn1)C1(Cl)CC1 (stereo not given)	130 to 132
Nc1ccccc1C(=O)c1cccc(O)c1	130 to 132
CC(C)(C)OC(=O)N[C@H](Cc1ccc(Cl)c(Cl)c1)C(=O)N1CCC[C@H]1C(=O)NC1CCc2nc(N)ncc2C1 (stereo not given in full)	114 to 117
Cc1ccc(S(=O)(=O)N[C@@H]2COC(=O)[C@H]2Cc2ccccc2)cc1	108 to 109
CC(C)(C)COc1c(-c2ccc(S(N)(=O)=O)c(F)c2)cnn(CC(F)(F)F)c1=O	144 to 145
COC(=O)C12Cc3cc(Cl)ccc3C1=NN(C(=O)N(C)c1ccc(OC(F)(F)F)cc1)CO2 (stereo not given)	130 to 131
COc1cc2nc(N3CCN(C#N)CC3)nc(N)c2cc1OC	215
O=C(O)/C(=N/O)c1ccc(OCCOc2ccc3ccccc3c2)s1	138 to 140
CCCCCCCN(CC(c1ccccc1)c1ccccc1)C(=O)Nc1ccc(F)cc1F	76 to 78
NCc1ccc(Nc2n[nH]c3ncnc(Nc4cccc(Cl)c4)c23)cc1	207 to 209
COc1cc(COc2ccccc2C=O)cc(OC)c1	68 to 69
CC(C)c1ccc2nc3ccc(C(=O)OCCCCc4cccnc4)cn3c(=O)c2c1	95 to 96
O=C(CCc1ccccc1)c1ccc2n1Cc1ccccc1N(C(=O)COc1ccc(Cl)cc1)C2	126 to 128
COC(=O)c1cc(N)c(N(C)C(C)=O)c(N)c1	120
CC(=O)Nc1ccc2cnn(-c3ccnc(N[C@H]4CC[C@H](O)CC4)n3)c2c1	288 to 290
COc1cc(OC)c(NC(=O)[C@H]2[C@H](c3ccccc3)C2(C)C)cc1Cl (relative stereo)	160 to 162
Cc1nc(O)sc1-c1cn2cccnc2n1	> 300
CCN1CC(SCC2CC2)(C(F)(F)F)c2cc(Cl)ccc2NC1=O (stereo not given)	152 to 156
COC(=O)Nc1cc2c(cn1)[nH]c1ccccc12	180 to 182
CCCCc1nc(N)c(C#N)[nH]1	115 to 116
Cc1ccc(-c2ccnc3c(C(=O)c4cccs4)cnn23)cc1NC(=O)CC(C)C	185 to 187
COc1ccc(/C=C(\C#N)c2ccccc2[N+](=O)[O-])cc1OC1CCCC1	95.5 to 97
Oc1ccc2nc(-c3ccc(O)c(F)c3)cc(-c3ccc(C(F)(F)F)cc3)c2c1	299 to 300
c1ccc(NC2(c3ccccc3)N=C(c3ccccc3)N=C2c2ccccc2)cc1 (stereo not given)	157

SMILES	melting point [°C]
Cn1nc(Sc2cc(C(F)(F)F)ccc2C#N)n(C)c1=O	113
O=P(c1ccccc1)(c1ccccc1)c1nc2ccccc2nc1P(=O)(c1ccccc1)c1ccccc1	258 to 272
COc1ccc(N2CCN(c3c(C)c(C)c4c(c3C)C(c3cccnc3)C(C)(C)O4)CC2)cc1 (stereo not given)	159 to 161
O=C(CNc1ccccc1F)Nc1ccc(O)cc1	143 to 146
CNC(=O)C(=NOC)c1ccccc1COc1ccc(Cl)c(C(=O)OC(C)(C)C)n1	103 to 108
CC1(C)C2CC(=O)C(CCC(=O)O)C1C2 (stereo not given)	45
COCCN1CCc2ccc(Nc3ncc4ccc(-c5ccccc5)n4n3)cc2CC1	116 to 118
O=C1NC(CCc2cc(C(F)(F)F)cc(C(F)(F)F)c2)C(Cc2c[nH]c3ccccc23)N1 (stereo not given)	194 to 195
CN(C)c1ccc(C2OC(=O)c3c(Cl)c(Cl)c(Cl)c(Cl)c32)c(N(C)C)c1 (stereo not given)	195 to 197
O=C(CCCc1ccccc1)NCC(=O)N1c2ccccc2N(Cc2ccccc2)C(=O)[C@H]2CCC[C@H]21 (relative stereo)	219 to 221
COc1cc(Nc2nccc(-c3cccnc3)n2)cc(OC)c1OC	155
CC(C)c1ccc(C(=O)CCl)cc1S(N)(=O)=O	141
O=C(O)COc1cccc2c1CCc1sc(SCC=Cc3ccccc3)nc1-2	171 to 172
O=C(Cn1c(-c2ccc(Cl)cc2)nc2cccnc21)N1CCC1	196 to 197
CCOC(=O)c1cnc2n(CC)c3ccccc3n2c1=O	118 to 120
COCCCNS(=O)(=O)NC(=O)OCc1ccc(OCCOC)cc1Oc1ncc(C(F)(F)F)cc1Cl	149 to 150
CNC(=O)c1cccc(F)c1Nc1nc(Nc2ccc3c(c2)C(C)(C)CCC(=O)N3)ncc1Cl	153
O=C(Nc1ccc2[nH]c(=O)oc2c1)C(=O)N1CCC(Cc2ccc(F)cc2)CC1	224 to 227
CNc1nc(Cl)nc2c(Cl)ncnc12	196 to 197
CN(C)c1ccc(N=Nc2ccccc2C(=O)NCCN)cc1	119 to 124
CC(C)n1nc(-c2cc(C(=O)NCCO)cnc2-c2ccccc2)ccc1=O	165 to 167
O=C1CCN(Cc2ccccc2)CC1C1c2ccccc2Oc2ccccc21 (stereo not given)	124 to 125
Cc1c(-c2ccc(O)cc2)n(Cc2ccc(OCCN(C(C)C)C(C)C)cc2)c2ccc(O)cc12	96 to 102
O=C(O)Cn1c(=O)c2cc(Cc3ncc[nH]3)ccc2n(Cc2ccc(Cl)c(Cl)c2)c1=O	243 to 244
O=C1N(N2CCOCC2)c2ccccc2C1(O)Cc1ccccn1 (stereo not given)	168 to 170
